The subject of one data set is uninfected MT-4 cells. As to the kind of experiment: Test B: Cytotoxicity Assay. To be noted: same protocol as Test A, 5 days. Format: cell-based. Put shortly:
(§1)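 Uninfected MT-4 cells (2000 per well) incubated with diluted compound at 37° C. for 5 days, following the antiviral protocol without HIV-IIIb.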

In another data set the test system is HIV-IIIb. As to the kind of experiment: Test A: Antiviral Assay in MT4 Cells. The class given is cell-based, HIV-1. As to conditions: for % inhibition at 0.2 μM: percent inhibition of virus-induced cell killing at 0.2 μM drug concentration; for % inhibition at 0.2 μM / % inhibition at 2 μM: from dose response curve, MT-4 cells, HIV-IIIb, 5 days, values above 100 normalized to 100; for % inhibition at 2 μM: percent inhibition of virus-induced cell killing at 2 μM drug concentration; for inhibition at 0.2 µM / inhibition at 2 µM: Human immunodeficiency virus 1, IIIB, MT4, 120 h; for inhibition at 0.2 µM: read-out: % inhibition at 0.2 μM; for inhibition at 2 µM: read-out: % inhibition at 2 μM. The method, then:
Test A: Antiviral Assay in MT4 Cells
MT-4 cells were next mixed with HIV-IIIb at an m.o.i of 0.003 for 1 hour, after which time 35 μL of virus/cell mixture (2000 cells) was immediately added to each well containing 40 μL of diluted compound. The plates were then incubated at 37° C. for 5 days. […] Cell lysis was carried out by incubating at room temperature for 10 min and then chemiluminescence was read.

Data set [1] is described as follows: Test B: Cytotoxicity Assay. Format: cell-based. To be noted: human, uninfected MT-4 cells, same protocol as Test A. The essentials: as §1

The structures appear in SMILES notation.

For `CC(C)(O)C#Cc1ccc(-c2cccc3c(N)n[nH]c23)c([C@H](Cc2cc(F)cc(F)c2)NC(=O)Cn2nc(C(F)(F)F)c3c2C(F)(F)[C@@H]2C[C@H]32)n1` [Compound 29B, N—((S)-1-(3-(3-amino-1H-indazol-7-yl)-6-(3-hydroxy-3-methylbut-1-yn-1-yl)pyridin-2-yl)-2-(3,5-difluorophenyl)ethyl)-2-((3b-S,4aR)-5,5-difluoro-3-(trifluoromethyl)-3b,4,4a,5-tetrahydro-1H-cyclopropa[3,4]cyclopenta[1,2-c]pyrazol-1-yl)acetamide], in the data set with uninfected MT-4 cells, the CC50 is 15.3 µM. In the data set on HIV-IIIb, the “% inhibition at 0.2 μM” value was 80% and the “% inhibition at 2 μM” value came out at 81%.
For `CC(C)(C)C#Cc1ccc(-c2cccn3c(NS(C)(=O)=O)nnc23)c([C@H](Cc2cc(F)cc(F)c2)NC(=O)Cn2nc(C(F)F)c3c2C(F)(F)[C@@H]2C[C@H]32)n1` [Compound 134, 2-((3bS,4aR)-3-(difluoromethyl)-5,5-difluoro-3b,4,4a,5-tetrahydro-1H-cyclopropa[3,4]cyclopenta[1,2-c]pyrazol-1-yl)-N—((S)-2-(3,5-difluorophenyl)-1-(6-(3,3-dimethylbut-1-yn-1-yl)-3-(3-(methylsulfonamido)-[1,2,4]triazolo[4,3-a]pyridin-8-yl)pyridin-2-yl)ethyl)acetamide] the same measures were 28 µM, 82% and 83%.
In turn, `Cn1nc(NS(C)(=O)=O)c2cccc(-c3ccc(C#C[C@@H](N)CO)nc3[C@H](Cc3cc(F)cc(F)c3)NC(=O)Cn3nc(C(F)(F)F)c4c3C(F)(F)[C@@H]3C[C@H]43)c21` [Compound 59B, N—((S)-1-(6-((R)-3-amino-4-hydroxybut-1-yn-1-yl)-3-(1-methyl-3-(methylsulfonamido)-1H-indazol-7-yl)pyridin-2-yl)-2-(3,5-difluorophenyl)ethyl)-2-((3b-S,4aR)-5,5-difluoro-3-(trifluoromethyl)-3b,4,4a,5-tetrahydro-1H-cyclopropa[3,4]cyclopenta[1,2-c]pyrazol-1-yl)acetamide] yielded a CC50 with uninfected MT-4 cells of 22.4 µM. Moreover, in the data set with HIV-IIIb, the “% inhibition at 0.2 μM” value is 94% and the “% inhibition at 2 μM” value was found to be 94%.
In the data set with uninfected MT-4 cells, `COc1cc(-c2ccc(Cl)c3c(NS(C)(=O)=O)nn(C)c23)c([C@H](Cc2cc(F)cc(F)c2)NC(=O)Cn2nc(C(F)(F)F)c3c2C(F)(F)[C@@H]2C[C@H]32)nc1C#CC(C)(C)O` [Compound 135B, N—((S)-1-(3-(4-chloro-1-methyl-3-(methylsulfonamido)-1H-indazol-7-yl)-6-(3-hydroxy-3-methylbut-1-yn-1-yl)-5-methoxypyridin-2-yl)-2-(3,5-difluorophenyl)ethyl)-2-((3b-S,4aR)-5,5-difluoro-3-(trifluoromethyl)-3b,4,4a,5-tetrahydro-1H-cyclopropa[3,4]cyclopenta[1,2-c]pyrazol-1-yl)acetamide] displayed a CC50 of 14.2 µM. In addition, in the data set with HIV-IIIb, the “% inhibition at 0.2 μM” value was 93% and the “% inhibition at 2 μM” value is 93%.
`Cn1nc(NS(C)(=O)=O)c2c(Cl)ccc(-c3ccc(-c4ccccn4)nc3[C@H](Cc3cc(F)cc(F)c3)NC(=O)Cn3nc(C(F)(F)F)c4c3C(F)(F)[C@@H]3C[C@H]43)c21` [Compound 172, N—((S)-1-(5-(4-chloro-1-methyl-3-(methylsulfonamido)-1H-indazol-7-yl)-[2,2′-bipyridin]-6-yl)-2-(3,5-difluorophenyl)ethyl)-2-((3b-S,4aR)-5,5-difluoro-3-(trifluoromethyl)-3b,4,4a,5-tetrahydro-1H-cyclopropa[3,4]cyclopenta[1,2-c]pyrazol-1-yl)acetamide] returned a cytotoxic concentration (CC50) in the data set with uninfected MT-4 cells of 0.061 µM.
For `Cn1cc(-c2ccc(-c3ccc(Cl)c4c(NS(C)(=O)=O)nn(C)c34)c([C@H](Cc3cc(F)cc(F)c3)NC(=O)Cn3nc(C(F)(F)F)c4c3C(F)(F)[C@@H]3C[C@H]43)n2)cn1` [Compound 173, N—((S)-1-(3-(4-chloro-1-methyl-3-(methylsulfonamido)-1H-indazol-7-yl)-6-(1-methyl-1H-pyrazol-4-yl)pyridin-2-yl)-2-(3,5-difluorophenyl)ethyl)-2-((3b-S,4aR)-5,5-difluoro-3-(trifluoromethyl)-3b,4,4a,5-tetrahydro-1H-cyclopropa[3,4]cyclopenta[1,2-c]pyrazol-1-yl)acetamide], the CC50 in the data set with uninfected MT-4 cells is over 43.7 µM. For the same molecule, in the data set with HIV-IIIb, the “% inhibition at 0.2 μM” value is recorded as 92% and the “% inhibition at 2 μM” value is 92%.
Regarding `Cc1ccc(-c2ccc(C#CC(C)(C)O)nc2[C@H](Cc2cc(F)cc(F)c2)NC(=O)Cn2nc(C(F)F)c3c2C(F)(F)[C@@H]2C[C@H]32)c2c1c(NS(N)(=O)=O)nn2C` [Compound 71, 2-((3b-S,4aR)-3-(difluoromethyl)-5,5-difluoro-3b,4,4a,5-tetrahydro-1H-cyclopropa[3,4]cyclopenta[1,2-c]pyrazol-1-yl)-N—((S)-2-(3,5-difluorophenyl)-1-(3-(1,4-dimethyl-3-(sulfamoylamino)-1H-indazol-7-yl)-6-(3-hydroxy-3-methylbut-1-yn-1-yl)pyridin-2-yl)ethyl)acetamide], the midpoint of cytotoxicity with uninfected MT-4 cells, the CC50, lay at 9.51 µM. In the data set with HIV-IIIb, the “% inhibition at 0.2 μM” value is recorded as 87% and the “% inhibition at 2 μM” value was 87%.
In the data set with uninfected MT-4 cells, `CCC(O)C#Cc1ccc(-c2ccc(Cl)c3c(NS(C)(=O)=O)nn(C)c23)c([C@H](Cc2cc(F)cc(F)c2)NC(=O)Cn2nc(C(F)(F)F)c3c2C(F)(F)[C@@H]2C[C@H]32)n1` (stereo partly drawn) [Compound 145, N-((1S)-1-(3-(4-chloro-1-methyl-3-(methylsulfonamido)-1H-indazol-7-yl)-6-(3-hydroxypent-1-yn-1-yl)pyridin-2-yl)-2-(3,5-difluorophenyl)ethyl)-2-((3b-S,4aR)-5,5-difluoro-3-(trifluoromethyl)-3b,4,4a,5-tetrahydro-1H-cyclopropa[3,4]cyclopenta[1,2-c]pyrazol-1-yl)acetamide] showed a CC50 of 8.69 µM. In the data set on HIV-IIIb, the “% inhibition at 0.2 μM” value is listed as 99% and the “% inhibition at 2 μM” value came to 99%.
With `Cn1nc(NS(C)(=O)=O)c2c(Cl)ccc(-c3cc(-c4cccnc4)cnc3[C@H](Cc3cc(F)cc(F)c3)NC(=O)Cn3nc(C(F)F)c4c3C(F)(F)[C@@H]3C[C@H]43)c21` [Compound 185C, N—((S)-1-(5-(4-chloro-1-methyl-3-(methylsulfonamido)-1H-indazol-7-yl)-[3,3′-bipyridin]-6-yl)-2-(3,5-difluorophenyl)ethyl)-2-((3bS,4aR)-3-(difluoromethyl)-5,5-difluoro-3b,4,4a,5-tetrahydro-1H-cyclopropa[3,4]cyclopenta[1,2-c]pyrazol-1-yl)acetamide], in data set [1], the CC50 at 5 days was 18.2 µM. Moreover, in the data set on HIV-IIIb, the inhibition at 0.2 µM came out at 89% and the inhibition at 2 µM is 89%.
In data set [1], `COc1ccc2[nH]cc(CC(=O)N[C@@H](Cc3cc(F)cc(F)c3)c3nc(C#CC(C)(C)O)ccc3-c3ccc(Cl)c4c(NS(C)(=O)=O)nn(C)c34)c2n1` [Compound 194, (S)—N-(1-(3-(4 chloro-1-methyl-3-(methylsulfonamido)-1H-indazol-7-yl)-6-(3-hydroxy-3-methylbut-1-yn-1-yl)pyridin-2-yl)-2-(3,5-difluorophenyl)ethyl)-2-(5-methoxy-1H-pyrrolo[3,2-b]pyridin-3-yl)acetamide] returned a CC50 at 5 days of 21.3 µM. Moreover, in the data set with HIV-IIIb, the inhibition at 0.2 µM was 84% and the inhibition at 2 µM came out at 99%.
In turn, `Cn1nc(NC(N)=O)c2c(Cl)ccc(-c3ccc(C#CC(C)(C)O)nc3[C@H](Cc3cc(F)cc(F)c3)NC(=O)Cn3nc(C(F)F)c4c3C(F)(F)[C@@H]3C[C@H]43)c21` [Compound 92, N—((S)-1-(3-(4-chloro-1-methyl-3-ureido-1H-indazol-7-yl)-6-(3-hydroxy-3-methylbut-1-yn-1-yl)pyridin-2-yl)-2-(3,5-difluorophenyl)ethyl)-2-((3bS,4aR)-3-(difluoromethyl)-5,5-difluoro-3b,4,4a,5-tetrahydro-1H-cyclopropa[3,4]cyclopenta[1,2-c]pyrazol-1-yl)acetamide] displayed a CC50 at 5 days in data set [1] of 6.24 µM. Moreover, in the data set with HIV-IIIb, the inhibition at 0.2 µM came out at 100% and the inhibition at 2 µM stood at 100%.

The values above are taken from patent publication US20140303164A1, “THERAPEUTIC COMPOUNDS” (Gilead Sciences, Inc., priority 2013, published 2014).
